Patent US10045985B2, “Heteroaryl compounds as BTK inhibitors and uses thereof” (Merck Patent GmbH, priority 2015, dated 2018)

Experiments:
[1] = target: T1, BTK C481S enzyme (His-TEV-hsBTK(328-659)(C481S)) (Homo sapiens, UniProt Q06187, C481S); assay: Assay B: microfluidic off-chip mobility shift assay for potency against BTK C481S enzyme; format: biochemical; settings: 90 min at 25° C.
T1 construct: His-TEV-hsBTK(328-659)(C481S); His (N); TEV cleavage site (N)
Source text: Assay B: Microfluidic Off-Chip Mobility Shift Assay Protocol for Potency Assessment Against BTK C481S Enzyme
The protocol below describes a microfluidic, off-chip mobility shift kinase assay to measure inherent potency of compounds against BTK C481S enzyme. The mechanics of the assay platform are described by the vendor (PerkinElmer, Hopkinton, Mass.) on their website at the following URL: http://caliperls.com.
Briefly, 2.5× stocks of His-TEV-hsBTK(328-659)(C481S) from the Merck Serono Protein Purification Laboratory in Darmstadt, Germany (PCS, Q27/234), 1.6×ATP and appropriate KinKDR peptide substrate (FITC-AHA-EEPLYWSFPAKKK-NH2; Tufts University Core Facility custom synthesis) were prepared in kinase reaction buffer consisting of 25 mM MgCl2, 0.015% Brij-35 (30%), 100 mM HEPES, pH 7.5, and 10 mM DTT.
5 uL of enzyme buffer and 7.5 uL of ATP/KinKDR peptide substrate mix were added to Matrix (#4315) 384-well, sterile, flat-bottom polypropylene plates (Thermo Fisher Scientific, Hudson, N.H.) with 125 nL of serially diluted compounds prepared in 100% DMSO, and incubated for 90 min. at 25° C. Following the incubation period, reactions were terminated by adding 65 uL quench buffer consisting of 100 mM HEPES, pH 7.5, 0.015% Brij-35 (30%), 0.277% Coating Reagent #3 (PerkinElmer, Mountain View, Calif.), 5% DMSO. Terminated reactions were monitored at −2 PSI, −3000 V/−700 Volts in a LabChip 3000 plate reader from Caliper Life Sciences, a PerkinElmer Company (Hopkinton, Mass.), and the activity was quantified by laser-induced fluorescence measuring the charge/mass difference between substrate and product resulting from peptide phosphorylation. IC50 and efficacy were determined by plotting log [Inhibitor] vs. % Activity in GeneData Screener (Basel, Switzerland).

[2] = tested on: anti-IgM-induced expression of CD69 in human peripheral blood mononuclear cells (PBMCs); assay: Assay C: time dependent PMBC IC50 assay (anti-IgM-induced CD69 expression on CD19 positive cells); format: cell-based; settings: PBMC, 1 h pre-treatment, anti-IgM overnight, CD69 on CD19 positive B cells
Source text: Assay C: Time Dependent PMBC IC50 Assay
Btk is critical for mediating the signalling of B cell antigen receptor (BCR) after anti-IgM stimulation. Based on this principle, a functional cell-based assay was established to determine the potency of compounds at inhibiting anti-IgM-induced expression of CD69, a downstream BCR signaling event, in freshly isolated human peripheral blood mononuclear cells (PBMCs). In the assay, a 90 al PBMC suspension containing 2.5×10^5 cells was pre-treated with 10 al of test compound at various concentrations for an hour, and then incubated overnight (approximately 16-18 hours) with 5 μl 420 μg/ml affiniPure F(ab′)2 fragment goat anti-human IgM Fc fragment per well (Dianova, Cat. No.: 109-006-129). After the incubation, the cells were washed and immunostained with an APC-labeled mouse anti-human CD69 (BD Biosciences; clone: FN50), a PerCP-Cy5.5 labelled mouse anti-human CD19 (BD Biosciences; clone: SJ25C1) and a FITC-labelled mouse anti-human CD3 (BD Biosciences; clone: HIT3a), and fixed for flow cytometric analysis of CD69 expression on CD19 positive cells (B cells). The percentage of CD69 expressing CD19 positive cells was plotted against the concentrations of test compounds to obtain a concentration response curve, and calculate an IC50 value as a measure of the potency of test compounds in the assay.

[3] = target: T2, full-length human BTK (Homo sapiens, UniProt Q06187); assay: Assay A: microfluidic off-chip mobility shift assay for potency against BTK enzyme; format: biochemical; settings: 90 min at 27° C.
T2 construct: full-length human BTK (08-080) from CarnaBio USA, Inc; purchased CarnaBio USA, Inc., Natick, Mass; 08-080
Source text: Assay A: Microfluidic Off-Chip Mobility Shift Assay Protocol for Potency Assessment Against BTK Enzyme
The protocol below describes microfluidic, off-chip mobility shift kinase assay to measure inherent potency of compounds against BTK enzyme. The mechanics of the assay platform are best described by the vendor (Caliper Life Sciences, a PerkinElmer Company, Hopkinton, Mass.) on their website at the following URL:
Briefly, 2.5× stocks of full-length human BTK (08-080) from CarnaBio USA, Inc., Natick, Mass., 1.6×ATP and appropriate kinKDR peptide substrate (FITC-AHA-EEPLYWSFPAKKK-NH2; developed in-house) were prepared in kinase reaction buffer consisting of 25 mM MgCl2, 0.015% Brij-35 (30%), 100 mM Hepes, pH 7.5, and 10 mM DTT.
5 uL of enzyme buffer and 7.5 uL of ATP/kinKDR peptide substrate mix were added to Matrix (#115304) 384-well, sterile, polypropylene plates (Thermo Fisher Scientific, Hudson, N.H.) with 125 nL of serially diluted compounds prepared in 100% DMSO, and incubated for 90 min. at 27° C. following the incubation period, reactions were stopped by adding 60 uL stop buffer consisting of 100 mM Hepes, pH 7.5, 0.015% Brij-35 (30%), 0.277% Coating Reagent #3 (Caliper Life Sciences, Mountain View, Calif.), 5% DMSO. Stopped reactions were monitored at −2 PSI, −3000 V/−700 V in a LabChip 3000 plate reader from Caliper Life Sciences, a PerkinElmer Company (Hopkinton, Mass.), and the activity was measured by off-chip mobility shift assay measuring the charge/mass difference between substrate and product resulting from peptide phosphorilation. IC50 and efficacy were determined by plotting log [Inhibitor] vs. % Activity in GeneData Screener (Basel, Switzerland).

T2 sequence (Q06187 whole entry): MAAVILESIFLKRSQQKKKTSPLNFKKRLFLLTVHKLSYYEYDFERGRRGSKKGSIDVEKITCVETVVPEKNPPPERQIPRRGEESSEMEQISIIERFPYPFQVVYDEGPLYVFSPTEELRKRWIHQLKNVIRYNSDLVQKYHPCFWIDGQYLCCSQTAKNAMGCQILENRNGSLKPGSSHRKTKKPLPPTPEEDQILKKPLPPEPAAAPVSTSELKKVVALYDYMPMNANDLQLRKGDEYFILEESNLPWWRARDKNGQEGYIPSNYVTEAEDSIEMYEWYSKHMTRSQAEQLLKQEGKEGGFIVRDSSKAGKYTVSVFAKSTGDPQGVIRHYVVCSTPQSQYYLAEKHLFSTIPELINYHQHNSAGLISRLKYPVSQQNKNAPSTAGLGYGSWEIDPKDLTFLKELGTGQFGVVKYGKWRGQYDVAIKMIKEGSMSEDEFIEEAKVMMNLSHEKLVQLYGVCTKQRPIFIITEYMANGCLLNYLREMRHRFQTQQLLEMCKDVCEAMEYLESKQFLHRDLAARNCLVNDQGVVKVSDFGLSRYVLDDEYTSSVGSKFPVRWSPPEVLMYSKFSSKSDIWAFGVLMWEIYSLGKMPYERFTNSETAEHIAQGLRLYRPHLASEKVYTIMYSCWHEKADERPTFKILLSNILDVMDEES
T1 sequence (Q06187 328-659 C481S): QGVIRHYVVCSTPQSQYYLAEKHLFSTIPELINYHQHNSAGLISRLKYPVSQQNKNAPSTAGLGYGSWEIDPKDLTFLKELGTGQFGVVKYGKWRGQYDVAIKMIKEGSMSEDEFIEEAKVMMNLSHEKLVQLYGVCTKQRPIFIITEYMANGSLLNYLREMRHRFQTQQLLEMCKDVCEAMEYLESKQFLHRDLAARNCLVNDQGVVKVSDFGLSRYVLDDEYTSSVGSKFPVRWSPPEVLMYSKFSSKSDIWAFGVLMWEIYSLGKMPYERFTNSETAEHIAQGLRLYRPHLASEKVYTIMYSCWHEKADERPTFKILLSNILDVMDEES

IC50 [1]	IC50 [3]	SMILES	IC50 [2]
100 to 1000 nM	100 to 1000 nM	COCCOc1ccc(Nc2ncc(F)c(NC3CCCC(NC(=O)c4ccc(C(C)(C)C)cc4)C3)n2)cc1 (racemic) [Compound 3, 4-(tert-butyl)-N-(3-((5-fluoro-2-((4-(2-methoxyethoxy)phenyl)amino)pyrimidin-4-yl)amino)cyclohexyl)benzamide]	
100 to 1000 nM	1000 to 5000 nM	COCCOc1ccc(Nc2ncc(F)c(Nc3cccc(NC(=O)CNc4cccc(Cl)c4)c3)n2)cc1 [Compound 4, 2-((3-chlorophenyl)amino)-N-(3-((5-fluoro-2-((4-(2-methoxyethoxy)phenyl)amino)pyrimidin-4-yl)amino)phenyl)acetamide]	
100 to 1000 nM	100 to 1000 nM	COCCOc1ccc(Nc2ncc(F)c(NC3CCCC(NC(=O)c4cc(C(C)(C)C)on4)C3O)n2)cc1 (racemic) [Compound 27]	
1000 to 5000 nM	1000 to 5000 nM	COCCOc1ccc(Nc2ncc(F)c(Nc3cccc(NC(=O)c4ccc(C(C)(C)C)cc4)c3)n2)cc1 [Compound 6]	
100 to 1000 nM	100 to 1000 nM	COCCOc1ccc(Nc2ncc(F)c(NC3CCCC(NC(=O)c4ccc(N(C)C)cc4)C3)n2)cc1 (stereo not drawn) [Compound 11, 4-Dimethylamino-N-(3-{5-fluoro-2-[4-(2-methoxy-ethoxy)-phenylamino]-pyrimidin-4-ylamino}-cyclohexyl)-benzamide]	
> 5000 nM	> 5000 nM	COCCOc1ccc(Nc2ncc(F)c(N3CCC[C@@H](NC(=O)CNc4cccc(Cl)c4)C3)n2)cc1 [Compound 2, (R)-2-((3-chlorophenyl)amino)-N-(1-(5-fluoro-2-((4-(2-methoxyethoxy)phenyl)amino)pyrimidin-4-yl)piperidin-3-yl)acetamide]	

Further lines, the compound ahead of its results:

SMILES	IC50 [1]	IC50 [3]	IC50 [2]
COCCOc1ccc(Nc2ncc(F)c(NC3CCCC(NC(=O)c4ccc(C(C)(C)C)cc4)C3O)n2)cc1 (racemic) [Compound 16, 4-(tert-butyl)-N-(3-((5-fluoro-2-((4-(2-methoxyethoxy)phenyl)amino)pyrimidin-4-yl)amino)-2-hydroxycyclohexyl)benzamide]	< 100 nM	< 100 nM	1000 to 5000 nM
COCCOc1ccc(Nc2ncc(F)c(NC3CCCC(NC(=O)c4cc5c(s4)CCCC5)C3O)n2)cc1 (racemic) [Compound 26]	< 100 nM	< 100 nM	
COCCOc1ccc(Nc2ncc(F)c(NC3CCCC(NC(=O)c4ccc(C(C)(C)O)cc4)C3)n2)cc1 (stereo not drawn) [Compound 12, N-(3-{5-Fluoro-2-[4-(2-methoxy-ethoxy)-phenylamino]-pyrimidin-4-ylamino}-cyclohexyl)0-4-(1-hydroxy-1-methyl-ethyl)-benzamide]	100 to 1000 nM	100 to 1000 nM	
COCCOc1ccc(Nc2ncc(F)c(NC3CCCC(NC(=O)c4ccc(C5CC5)cc4)C3)n2)cc1 (stereo not drawn) [Compound 10, 4-cyclopropyl-N-(3-((5-fluoro-2-((4-(2-methoxyethoxy)phenyl)amino)pyrimidin-4-yl)amino)cyclohexyl)benzamide]	100 to 1000 nM	100 to 1000 nM	> 5000 nM
COCCOc1ccc(Nc2ncc(F)c(N[C@@H]3CCC[C@@H](NC(=O)c4ccc(C(C)(C)C)cc4)C3O)n2)cc1 (stereo partly drawn) [Compound 24]	< 100 nM	< 100 nM	
COCCOc1ccc(Nc2ncc(F)c(N[C@@H]3CCC[C@@H](NC(=O)c4ccc(C(C)(C)C)cc4)C3)n2)cc1 (racemic) [Compound 19, 4-(tert-butyl)-N-(trans-3-((5-fluoro-2-((4-(2-methoxyethoxy)phenyl)amino)pyrimidin-4-yl)amino)cyclohexyl)benzamide]	< 100 nM	< 100 nM	
COCCOc1ccc(Nc2ncc(F)c(N3CCCC4(CCN(C(=O)c5ccc(C(C)(C)C)cc5)C4)C3)n2)cc1 (stereo not drawn) [Compound 15, (4-(tert-butyl)phenyl)(7-(5-fluoro-2-((4-(2-methoxyethoxy)phenyl)amino)pyrimidin-4-yl)-2,7-diazaspiro[4.5]decan-2-yl)methanone]		> 5000 nM	
COCCOc1ccc(Nc2ncc(F)c(NC3CCCC(NC(=O)CNc4cccc(Cl)c4)C3)n2)cc1 (racemic) [Compound 5]	1000 to 5000 nM	1000 to 5000 nM	
COCCOc1ccc(Nc2ncc(F)c(NC3CCCC(NC(=O)Cc4ccc(C(C)(C)C)cc4)C3)n2)cc1 (stereo not drawn) [Compound 13, 2-(4-tert-Butyl-phenyl)-N-(3-{5-fluoro-2-[4-(2-methoxy-ethoxy)-phenylamino]-pyrimidin-4-ylamino}-cyclohexyl)-acetamide]		> 5000 nM	
